Assay results published in US9723838B2, “Pyrazolyl amide compounds and uses thereof” (SHENYANG SINOCHEM AGROCHEMICALS R&D CO., LTD., priority 2013, dated 2017).
Like-named read-outs stand apart in the source and are kept apart here.

Experiments:
[1] = system: diamondback moth; test: Test against diamondback moth (leaf disc spraying); format: in vivo; settings: for mortality at 0.156 ppm / mortality at 0.313 ppm / mortality at 0.63 ppm / mortality at 10 ppm / mortality at 100 ppm: Plutella xylostella, foliar; for mortality at 10 ppm / mortality at 100 ppm: read-out: mortality against diamondback moth; for Mortality (%): parallel test
From the text: The test method is spraying. The leaves of cabbage grown in greenhouse were chosen, removed the surface waxy layer and perforated to get 3 cm diameter leaf discs by the hole puncher. The test compounds were sprayed on both sides of the discs by Airbrush according to the designed concentration from low to high dose. The cabbage discs were placed in 6 cm diameter Petri dish with filter paper. Tentest insects (3 instar) were introduced on each treatment after drying. Each treatment set the pure water as CK. The treated discs were placed in a certain condition. After 72 h, the number of surviving insects was investigated and the mortality rates were calculated.

[2] = system: green peach aphid; test: Test against green peach aphid (spraying); format: in vivo; settings: for mortality at 2.5 ppm / mortality at 5 ppm / mortality at 10 ppm / mortality at 100 ppm / mortality at 600 ppm: Myzus persicae; for mortality at 100 ppm / mortality at 600 ppm: read-out: mortality against green peach aphid; for Mortality (%): parallel test
Experimental: According to the solubility of test compounds, the compounds are dissolved in acetone or dimethyl sulfoxide, and then diluted with 0.1% aqueous solution of Tween 80 to form the test liquid 50 ml, the content of acetone or dimethyl sulfoxide in the total solution is not more than 10%.
The 6 cm diameter Petri dish with a layer of filter paper was chosen, a moderate amount of water was added to preserve moisture. A suitable piece of cabbage leaf with 30-50 green peach aphids was excised from a culture plant. Remove the winged and positive aphids, the leaf was placed to the Petri dish above with back upward. The test compounds were sprayed on both sides of the leaf by Airbrush (spray pressure: 10 psi, equate to 0.7 kg/cm^2; spray volume: 0.5 mL; spray distance: 15-20 cm). The treated Petri dishes were placed in a chamber of 23-25° C., 40%-60% relative humidity, L/D 13 h: 11 h. To keep the leaf fresh, a moderate amount of water was added to the Petri dish during the observation. After 48 h, the number of surviving insects was investigated and the mortality rates were calculated.

[3] = system: apple tree aphids; test: Field test against apple tree aphids; format: in vivo; settings: for mortality at 25 µg/mL: dose 25 mg/L; for mortality at 50 µg/mL: dose 50 mg/L
Experimental: The test was carried out in the institute of pomology of CAAS orchard in June 2014, using starkrimson as the test sample, the apple tree aphids were in preliminary stage. The test method is spraying using the stretcher power sprayer (ZL-22-160), each treatment repeated 4 times. The number of initial aphids was investigated before spraying. After 2 days, 7 days, 14 days, the number of surviving aphids was investigated respectively and the control efficiency were calculated. 10% Cyantraniliprole SC was commercial available which was bought from DuPont Agricultural Chemicals Ltd., Shanghai.

[4] = system: black bean aphid; test: Test of absorption activity (horsebean seedling, solution poured into cup); format: in vivo; settings: Aphis fabae, after 48 h; for mortality at 0.625 µg/mL: 0.625 mg/L; for mortality at 2.5 µg/mL: 2.5 mg/L; for mortality at 10 µg/mL: 10 mg/L
Experimental: The 3 cm horsebean seedling that pre-infested by a certain number of black bean aphids (2 days instar) was chosen and transplanted to a paper cup loaded with fine sand. According to the test, the test compounds were treated to a solution and poured into the cup. After 48 h, the number of surviving insects was investigated and the mortality rates were calculated.

[5] = system: army worm; test: Test against army worm (corn leaf spraying); format: in vivo; settings: for Mortality (%): parallel test
Experimental: The test method is spraying. The middle part of fresh corn leaves were chosen and cut into 3 cm sects. The test compounds were sprayed on both sides of the sects by Airbrush according to the designed concentration from low to high dose. The sects were placed in 6 cm diameter Petri dish with filter paper. Ten test insects (3 instar) were introduced on each treatment after drying. Each treatment set the pure water as CK. The treated sects were placed in a certain condition. After 72 h, the number of surviving insects was investigated and the mortality rates were calculated.

[6] = system: cabbage aphids; test: Field test against cabbage aphids; format: in vivo
Experimental: The test was carried out in the institute of Vegetables and Flowers Chinese Academy of Agriculture Sciences Nankou base, using cabbages (JINGFENG) as the test plant. The test compounds dosage were 15 g a.i./hm^2 and 10% Cyantraniliprole SC dosage was 30 g a.i./hm^2 which were sprayed evenly to the whole plant using backpack manual sprayer (“MATABI” SUPER GREEN 16) at the spray volume of 750 L/hm^2. Each treatment repeated 4 times, arranged with randomized blocks. 5 spots were chosen from each area using diagonal method, each spot contains 2 cabbages, the 10 cabbages above were investigated in the area. The number of initial cabbage aphids was investigated before spraying. After 1 day, 3 days, 7 days, 14 days, the number of surviving aphids was investigated respectively and the control efficiency were calculated. decline ratio of insect (%)=(insect number before pesticide application−insect number after pesticide application)/(insect number before pesticide application)×100% control efficiency (%)=(treatment area decline ratio of insect−CK area decline ratio of insect)/(100−CK area decline ratio of insect)×100% Calculation Method:
10% Cyantraniliprole SC was bought from DuPont Agricultural Chemicals Ltd., Shanghai.

[7] = system: armyworm; settings: disclosed in CN1653051A; cited from earlier work
[8] = system: diamond back moth; settings: disclosed in CN1653051A; cited from earlier work
[9] = 72 h, read-out: mortality against army worm
[10] = 10 ppm, spraying, after 72 h, read-out: mortality against army worm
[11] = 100 ppm, spraying, after 72 h, read-out: mortality against army worm

CC(C)(NC(=O)c1cc(Cl)cc(Cl)c1NC(=O)c1cc(Cl)nn1-c1ncccc1Cl)C(N)=O [Compound 1.3]
mortality at 0.156 ppm ([1]; 72 h): 87.5% | mortality at 0.313 ppm ([1]; 72 h): 100% | mortality at 0.63 ppm ([1]; 72 h): 100% | mortality at 10 ppm ([1]; 72 h): ≥ 80% | mortality at 100 ppm ([1]; 72 h): ≥ 80% | mortality at 2.5 ppm ([2]; 48 h): 100% | mortality at 5 ppm ([2]; 48 h): 100% | mortality at 10 ppm ([2]; 48 h): 100% | mortality at 100 ppm ([2]; 48 h): ≥ 80% | mortality at 600 ppm ([2]; 48 h): ≥ 80% | mortality at 25 µg/mL ([3]; 48 h, 2 day): 78.9% | mortality at 50 µg/mL ([3]; 48 h, 2 day): 83.5% | mortality at 25 µg/mL ([3]; 168 h, 7 day): 93.5% | mortality at 50 µg/mL ([3]; 168 h, 7 day): 96.1% | mortality at 25 µg/mL ([3]; 336 h, 14 day): 93.1% | mortality at 50 µg/mL ([3]; 336 h, 14 day): 96.7% | mortality at 0.625 µg/mL [4]: 100% | mortality at 2.5 µg/mL [4]: 100% | mortality at 10 µg/mL [4]: 100% | mortality at 2.5 ppm ([5]; 72 h): 64.3% | mortality at 5 ppm ([5]; 72 h): 81.2% | mortality at 10 ppm ([5]; 72 h): 100% | mortality at 10 ppm [5, 9]: ≥ 80% | mortality at 100 ppm [5, 9]: ≥ 80% | Mortality (%) ([6]; dose 15 g a.i./hm^2, 1 d): 80.78 c % | Mortality (%) ([6]; dose 15 g a.i./hm^2, 3 d): 87.22 b % | Mortality (%) ([6]; dose 15 g a.i./hm^2, 7 d): 92.57 ab % | Mortality (%) ([6]; dose 15 g a.i./hm^2, 14 d): 91.77 ab %

CC(C)(NC(=O)c1cc(Cl)cc(Cl)c1NC(=O)c1cc(Br)nn1-c1ncccc1Cl)C(N)=O [Compound 1.4]
mortality at 0.156 ppm ([1]; 72 h): 100% | mortality at 0.313 ppm ([1]; 72 h): 100% | mortality at 0.63 ppm ([1]; 72 h): 100% | mortality at 10 ppm ([1]; 72 h): ≥ 80% | mortality at 100 ppm ([1]; 72 h): ≥ 80% | mortality at 2.5 ppm ([2]; 48 h): 90.1% | mortality at 5 ppm ([2]; 48 h): 100% | mortality at 10 ppm ([2]; 48 h): 100% | mortality at 100 ppm ([2]; 48 h): ≥ 80% | mortality at 600 ppm ([2]; 48 h): ≥ 80% | mortality at 0.625 µg/mL [4]: 100% | mortality at 2.5 µg/mL [4]: 100% | mortality at 10 µg/mL [4]: 100% | mortality at 2.5 ppm ([5]; 72 h): 50% | mortality at 5 ppm ([5]; 72 h): 86.6% | mortality at 10 ppm ([5]; 72 h): 92.8% | mortality at 10 ppm [5, 9]: ≥ 80% | mortality at 100 ppm [5, 9]: ≥ 80% | Mortality (%) ([6]; dose 15 g a.i./hm^2, 1 d): 84.40 abc % | Mortality (%) ([6]; dose 15 g a.i./hm^2, 3 d): 91.03 ab % | Mortality (%) ([6]; dose 15 g a.i./hm^2, 7 d): 95.58 ab % | Mortality (%) ([6]; dose 15 g a.i./hm^2, 14 d): 91.79 ab %

CC(C)(NC(=O)c1cc(F)cc(Cl)c1NC(=O)c1cc(Br)nn1-c1ncccc1Cl)C(N)=O [Compound 1.8]
Mortality (%) ([1]; 0.156 ppm, after 72 h): 52.1% | Mortality (%) ([1]; 0.313 ppm, after 72 h): 75% | Mortality (%) ([1]; 0.63 ppm, after 72 h): 100% | Mortality (%) ([2]; 2.5 ppm, after 48 h): 89.3% | Mortality (%) ([2]; 5 ppm, after 48 h): 100.0% | Mortality (%) ([2]; 10 ppm, after 48 h): 100.0% | Mortality (%) ([5]; 2.5 ppm, after 72 h): 43.7% | Mortality (%) ([5]; 5 ppm, after 72 h): 50.0% | Mortality (%) ([5]; 10 ppm, after 72 h): 100%

CC(C)(NC(=O)c1cc(Br)cc(Br)c1NC(=O)c1cc(Br)nn1-c1ncccc1Cl)C(N)=O [Compound 1.10]
mortality at 0.156 ppm ([1]; 72 h): 62.5% | mortality at 0.313 ppm ([1]; 72 h): 81.3% | mortality at 0.63 ppm ([1]; 72 h): 100% | mortality at 10 ppm ([1]; 72 h): ≥ 80% | mortality at 100 ppm ([1]; 72 h): ≥ 80% | mortality at 2.5 ppm ([2]; 48 h): 100% | mortality at 5 ppm ([2]; 48 h): 100% | mortality at 10 ppm ([2]; 48 h): 100% | mortality at 100 ppm ([2]; 48 h): ≥ 80% | mortality at 600 ppm ([2]; 48 h): ≥ 80% | mortality at 2.5 ppm ([5]; 72 h): 62.5% | mortality at 5 ppm ([5]; 72 h): 87.5% | mortality at 10 ppm ([5]; 72 h): 100% | mortality at 100 ppm [5, 9]: ≥ 80%

CC1(C)N=C(c2cc(Cl)cc(Cl)c2NC(=O)c2cc(Cl)nn2-c2ncccc2Cl)NC1=O [Compound 1.20]
mortality at 10 ppm ([1]; 10 ppm, spraying, after 72 h): ≥ 80% | mortality at 100 ppm ([1]; 100 ppm, spraying, after 72 h): ≥ 80% | mortality at 100 ppm ([2]; 100 ppm, spraying, after 48 h): ≥ 80% | mortality at 600 ppm ([2]; 600 ppm, spraying, after 48 h): ≥ 80% | mortality at 10 ppm [5, 10]: ≥ 80% | mortality at 100 ppm [5, 11]: ≥ 80%

CC1(C)N=C(c2cc(Cl)cc(Cl)c2NC(=O)c2cc(Br)nn2-c2ncccc2Cl)NC1=O [Compound 1.21]
mortality at 10 ppm ([1]; 10 ppm, spraying, after 72 h): ≥ 80% | mortality at 100 ppm ([1]; 100 ppm, spraying, after 72 h): ≥ 80% | mortality at 600 ppm ([2]; 600 ppm, spraying, after 48 h): ≥ 80% | mortality at 10 ppm [5, 10]: ≥ 80% | mortality at 100 ppm [5, 11]: ≥ 80%

CC1(C)N=C(c2cc(Br)cc(Br)c2NC(=O)c2cc(Br)nn2-c2ncccc2Cl)NC1=O [Compound 1.27]
mortality at 10 ppm ([1]; 10 ppm, spraying, after 72 h): ≥ 80% | mortality at 100 ppm ([1]; 100 ppm, spraying, after 72 h): ≥ 80% | mortality at 100 ppm ([2]; 100 ppm, spraying, after 48 h): ≥ 80% | mortality at 600 ppm ([2]; 600 ppm, spraying, after 48 h): ≥ 80% | mortality at 10 ppm [5, 10]: ≥ 80% | mortality at 100 ppm [5, 11]: ≥ 80%

CNC(=O)c1cc(C#N)cc(C)c1NC(=O)c1cc(Br)nn1-c1ncccc1Cl [Cyantraniliprole, reference compound]
mortality at 0.625 µg/mL [4]: 30% | mortality at 2.5 µg/mL [4]: 54.6% | mortality at 10 µg/mL [4]: 100%

CC(NC(=O)c1cc(Br)cc(Br)c1NC(=O)c1cc(Br)nn1-c1ncccc1Cl)C(N)=O (stereo not shown) [KC1, reference compound]
mortality at 0.156 ppm ([1]; 72 h): 0% | mortality at 0.313 ppm ([1]; 72 h): 20% | mortality at 0.63 ppm ([1]; 72 h): 33.3% | mortality at 2.5 ppm ([2]; 48 h): 0% | mortality at 5 ppm ([2]; 48 h): 0% | mortality at 10 ppm ([2]; 48 h): 15.1% | insecticidal activity against armyworm [7]: high activity | mortality at 2.5 ppm ([5]; 72 h): 0% | mortality at 5 ppm ([5]; 72 h): 0% | mortality at 10 ppm ([5]; 72 h): 18% | insecticidal activity against diamond back moth [8]: high activity

CC(NC(=O)c1cc(F)cc(Cl)c1NC(=O)c1cc(Br)nn1-c1ncccc1Cl)C(N)=O (stereo not shown) [KC2, reference compound]
mortality at 0.156 ppm ([1]; 72 h): 30% | mortality at 0.313 ppm ([1]; 72 h): 45.8% | mortality at 0.63 ppm ([1]; 72 h): 63.2% | mortality at 2.5 ppm ([2]; 48 h): 0% | mortality at 5 ppm ([2]; 48 h): 57.6% | mortality at 10 ppm ([2]; 48 h): 70.4% | insecticidal activity against armyworm [7]: high activity | mortality at 2.5 ppm ([5]; 72 h): 0% | mortality at 5 ppm ([5]; 72 h): 16.7% | mortality at 10 ppm ([5]; 72 h): 61.6% | insecticidal activity against diamond back moth [8]: high activity
